One data set addresses T1, HDAC8 (Homo sapiens, UniProt Q9BY41).
T1 sequence (Q9BY41 1-377): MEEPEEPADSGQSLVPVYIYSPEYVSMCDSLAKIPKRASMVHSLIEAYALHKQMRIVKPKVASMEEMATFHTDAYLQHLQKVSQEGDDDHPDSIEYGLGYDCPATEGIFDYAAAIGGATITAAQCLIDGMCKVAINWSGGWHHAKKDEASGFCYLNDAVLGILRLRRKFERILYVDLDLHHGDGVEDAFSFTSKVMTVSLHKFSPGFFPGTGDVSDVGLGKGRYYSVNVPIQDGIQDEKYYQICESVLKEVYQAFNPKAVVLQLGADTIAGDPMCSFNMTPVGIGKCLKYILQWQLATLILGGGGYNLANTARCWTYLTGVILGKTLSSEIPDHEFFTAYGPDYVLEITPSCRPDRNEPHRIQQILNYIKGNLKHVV
Briefly: HDAC isoform assay, HDAC8.

Data set [1] concerns HDACs (nuclear HeLa extract). In words: pan-HDAC fluorescent biochemical assay with nuclear HeLa extract. To be noted: HDAC peptide substrate, 60 min at 37° C. How it is done:
Substrate was synthesized in house. Stocks were prepared in DMSO (10 mM).
Compound working solution: Compounds dissolved in assay buffer at 4× Screening concentration. Activator solution: Trypsin (10 mg/mL) diluted 1:1600 in Assay Buffer containing 4 μM TSA.
Total reaction Volume: 40 μL
Reaction was allowed to run for 60 minutes at 37° C.
2. Combine in a white ½ area well plate: 10 μl of 4× compound (or buffer), 15 μl of substrate and 15 μl of HeLa extract. Mix well
3. Incubate at 37° C. for 60 min.
4. Prepare Activator solution. Dilute Trypsin 1:1600 in Assay Buffer+4μM TSA. 20 μl is needed per assay point.
5. Add 20 μl of prepared activator solution and mix thoroughly.
The hydroxamic-acid based compounds of the present invention were tested in the biochemical assay for their pan-HDAC inhibitory activity.

Another data set has as its target T2, HDAC3 (Homo sapiens, UniProt O15379).
T2 construct: purchased BioMol
In words: HDAC isoform assay, HDAC3. The settings on record: substrate KI-177; read-out: HDAC3, IC50, ELISA (KI-177). Type of data set: biochemical. Background: In an ELISA, binding on a coated surface is turned into a signal by an enzyme label.

For a further data set, the target named is T3, HDAC1 (Homo sapiens, UniProt Q13547).
T3 construct: cell extract containing HDAC (HeLa in these experiments); endogenous in cells; host or cells: HeLa cell extract
T3 sequence (Q13547 whole entry): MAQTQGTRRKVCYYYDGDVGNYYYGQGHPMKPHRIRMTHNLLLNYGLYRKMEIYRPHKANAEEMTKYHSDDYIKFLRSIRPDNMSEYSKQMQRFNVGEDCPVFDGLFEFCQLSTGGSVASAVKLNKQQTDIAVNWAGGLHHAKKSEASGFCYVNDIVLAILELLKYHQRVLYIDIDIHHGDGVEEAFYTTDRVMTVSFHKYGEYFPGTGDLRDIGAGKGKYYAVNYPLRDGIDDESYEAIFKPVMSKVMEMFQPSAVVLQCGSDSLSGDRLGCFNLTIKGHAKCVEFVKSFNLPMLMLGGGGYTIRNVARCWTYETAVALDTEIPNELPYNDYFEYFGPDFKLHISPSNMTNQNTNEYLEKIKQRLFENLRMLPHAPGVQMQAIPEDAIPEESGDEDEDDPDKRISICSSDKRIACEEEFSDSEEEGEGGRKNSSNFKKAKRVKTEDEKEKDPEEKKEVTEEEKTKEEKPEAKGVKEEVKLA
In words: HDAC-1 immunocapture fluorescent biochemical assay (HeLa lysate). The settings on record: HDAC1 immunocaptured from HeLa extract. How it is done:
The HDAC-1 assay represents a novel immunocapture assay procedure. […] The HDAC1 is captured on a protein A coated plate using HDAC1 specific antibody, and is then allowed to react with the substrate.
This assay in performed in four general steps. In the first step (FIG. 1A), cell extract containing HDAC (HeLa in these experiments) is incubated with (cell signaling) rabbit polyclonal HDAC1 antibody (rabbit IgG antibody is used for background control) to allow binding of the enzyme to the antibody. In the second step, the complexed mixture is added to the protein A covered plate which captures the antibody. In the third step, after washing away unbound proteins, substrate and inhibitor are added and deacetylation is allowed to occur. […] The plate is then read on either Victor or Perkin Elmer Envision system using Umbilliferone filter set.
• A. HeLa extract complexed with HDAC1 antibody working solution (in DPBS):
Compound working solution (in HDAC buffer):
Compounds diluted in assay buffer at 2× Screening concentration. • D. Activator solution:
Trypsin (10 mg/mL) diluted 1:1600 in assay buffer containing 4 μM TSA.
Complexing of extract with antibody was carried out at room temperature for 60 min with rocking. Binding of complexes onto protein A plate was carried out at room temperature for 60 min in 50 μL. Reaction was carried out in […], in the protein A plate for 60 minutes at 37° C. 40 μL of the reaction was moved into white ½ area plate for activation and reading.
• 1. Set PIERCE Protein A plate to block with 150 μof 5% BSA in TB ST for 60 min at room temperature. • 2. […] Dilute complexes further ([…]) by addition of 3.5 mL of PBS (final total volume of 5 mL). • 4. Wash blocked protein A plate prior to complex addition with TBST. • 5. Add 50 μl of diluted complexes to Protein A plate and incubate for 60 min at room temperature. • 6. Wash plate with TB ST. • 7. Add 25 μl of diluted compounds (in HDAC buffer) to each well and incubate for 10 min at room temperature. • 8. […] Move 40 μl of reaction to a white plate and add 20 μl of activator/developer solution, mix thoroughly. • 10. Read plate.

In another data set the target is T4, HDAC6 (Homo sapiens, UniProt Q9UBN7).
T4 sequence (Q9UBN7 1-1215): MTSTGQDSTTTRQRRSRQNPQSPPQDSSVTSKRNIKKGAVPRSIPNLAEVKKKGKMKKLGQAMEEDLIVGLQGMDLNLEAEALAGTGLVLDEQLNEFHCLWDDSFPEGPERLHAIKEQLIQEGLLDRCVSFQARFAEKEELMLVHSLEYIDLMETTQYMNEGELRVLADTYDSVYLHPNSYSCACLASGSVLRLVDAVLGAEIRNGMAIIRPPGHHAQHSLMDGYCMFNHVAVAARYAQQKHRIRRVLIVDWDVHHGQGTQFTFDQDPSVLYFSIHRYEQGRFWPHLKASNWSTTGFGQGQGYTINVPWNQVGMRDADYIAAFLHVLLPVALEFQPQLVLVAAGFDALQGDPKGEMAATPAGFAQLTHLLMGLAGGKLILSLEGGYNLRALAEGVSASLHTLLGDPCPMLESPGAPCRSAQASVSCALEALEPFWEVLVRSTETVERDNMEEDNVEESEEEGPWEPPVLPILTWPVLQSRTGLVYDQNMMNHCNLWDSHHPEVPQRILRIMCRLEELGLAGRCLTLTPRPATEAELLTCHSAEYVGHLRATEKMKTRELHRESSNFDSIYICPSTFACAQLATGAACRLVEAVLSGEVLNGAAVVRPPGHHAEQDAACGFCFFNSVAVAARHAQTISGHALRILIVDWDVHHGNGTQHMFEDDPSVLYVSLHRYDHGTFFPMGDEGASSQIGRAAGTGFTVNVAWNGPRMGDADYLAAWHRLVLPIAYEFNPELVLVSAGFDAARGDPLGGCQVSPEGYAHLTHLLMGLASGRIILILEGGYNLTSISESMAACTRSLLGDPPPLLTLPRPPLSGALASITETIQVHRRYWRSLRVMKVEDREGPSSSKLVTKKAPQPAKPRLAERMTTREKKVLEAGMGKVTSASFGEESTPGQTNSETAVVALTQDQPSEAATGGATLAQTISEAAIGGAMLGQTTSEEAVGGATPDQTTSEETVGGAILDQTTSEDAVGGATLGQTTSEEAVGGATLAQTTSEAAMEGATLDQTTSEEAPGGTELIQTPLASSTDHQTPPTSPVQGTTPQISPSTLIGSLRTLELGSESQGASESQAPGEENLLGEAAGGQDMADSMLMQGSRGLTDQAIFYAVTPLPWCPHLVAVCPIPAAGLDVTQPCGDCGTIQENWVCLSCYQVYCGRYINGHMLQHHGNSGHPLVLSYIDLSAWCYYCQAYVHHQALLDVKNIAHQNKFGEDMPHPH
Briefly: HDAC isoform assay, HDAC6.

For the next data set, the target named is T5, HDAC4 (Homo sapiens, UniProt P56524).
T5 construct: purchased BioMol
T5 sequence (P56524 whole entry): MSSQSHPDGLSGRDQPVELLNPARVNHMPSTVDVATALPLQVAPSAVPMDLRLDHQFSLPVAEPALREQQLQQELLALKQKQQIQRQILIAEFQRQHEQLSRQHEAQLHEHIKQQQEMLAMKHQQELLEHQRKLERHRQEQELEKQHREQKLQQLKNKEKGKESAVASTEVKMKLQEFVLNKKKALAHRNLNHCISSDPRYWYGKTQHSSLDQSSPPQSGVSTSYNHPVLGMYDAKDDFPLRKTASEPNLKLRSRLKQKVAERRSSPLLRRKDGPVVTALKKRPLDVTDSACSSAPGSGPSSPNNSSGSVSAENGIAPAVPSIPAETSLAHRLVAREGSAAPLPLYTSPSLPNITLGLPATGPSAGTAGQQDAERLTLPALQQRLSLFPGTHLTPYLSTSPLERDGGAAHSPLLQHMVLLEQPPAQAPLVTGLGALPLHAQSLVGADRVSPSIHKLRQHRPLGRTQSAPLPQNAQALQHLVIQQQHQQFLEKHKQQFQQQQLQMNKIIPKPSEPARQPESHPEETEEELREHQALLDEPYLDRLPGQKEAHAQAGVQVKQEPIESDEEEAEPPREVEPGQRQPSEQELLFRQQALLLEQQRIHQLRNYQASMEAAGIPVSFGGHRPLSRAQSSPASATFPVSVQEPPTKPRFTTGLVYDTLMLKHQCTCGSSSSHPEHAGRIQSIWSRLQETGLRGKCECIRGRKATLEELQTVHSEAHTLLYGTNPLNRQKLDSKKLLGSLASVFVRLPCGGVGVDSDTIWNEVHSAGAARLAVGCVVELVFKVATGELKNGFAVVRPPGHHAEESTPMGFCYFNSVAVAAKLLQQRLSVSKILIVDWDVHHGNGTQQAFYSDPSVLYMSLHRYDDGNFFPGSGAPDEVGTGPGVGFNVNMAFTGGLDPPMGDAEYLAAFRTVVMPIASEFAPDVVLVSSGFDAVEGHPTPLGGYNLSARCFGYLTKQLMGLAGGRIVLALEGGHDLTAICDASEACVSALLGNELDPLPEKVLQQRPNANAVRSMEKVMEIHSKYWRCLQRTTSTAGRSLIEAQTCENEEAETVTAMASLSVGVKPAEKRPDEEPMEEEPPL
Briefly: HDAC isoform assay, HDAC4. Type of data set: biochemical. To be noted: substrate KI-177; read-out: HDAC4, IC50, ELISA (KI-177).

For another data set, the target named is T6, HDAC2 (Homo sapiens, UniProt Q92769).
T6 construct: purchased BioMol
T6 sequence (Q92769 whole entry): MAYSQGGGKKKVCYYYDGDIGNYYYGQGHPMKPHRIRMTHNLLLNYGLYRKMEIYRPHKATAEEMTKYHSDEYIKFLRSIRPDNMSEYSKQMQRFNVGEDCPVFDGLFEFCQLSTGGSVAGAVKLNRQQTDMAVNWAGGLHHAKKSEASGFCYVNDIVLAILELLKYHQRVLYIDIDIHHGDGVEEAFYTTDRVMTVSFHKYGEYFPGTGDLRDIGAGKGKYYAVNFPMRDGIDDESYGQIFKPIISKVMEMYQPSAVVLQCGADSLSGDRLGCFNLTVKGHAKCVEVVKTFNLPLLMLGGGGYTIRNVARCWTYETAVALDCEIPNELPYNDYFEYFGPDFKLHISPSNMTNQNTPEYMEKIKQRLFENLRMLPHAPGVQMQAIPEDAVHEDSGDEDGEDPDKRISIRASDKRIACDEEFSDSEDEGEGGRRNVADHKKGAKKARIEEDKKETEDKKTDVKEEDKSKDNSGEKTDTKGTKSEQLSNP
In words: HDAC isoform assay, HDAC2. Type of data set: biochemical. To be noted: substrate KI-177; read-out: HDAC2, IC50, ELISA (KI-177).

Another data set relates to HH cells. In words: MTS cell viability assay, HH. The format is cell-based. To be noted: Homo sapiens, 72 hr, read-out: HH, IG50, MTS. How it is done: The MTS cell viability assay was used to determine the potency of proliferation inhibitor with. MTS measures mitochondrial dehydrogenase activity and serves as surrogate readout for the number of viable cells. The protocol described below is based upon the “CellTiter 96 Aqueous Non-Radioactive Cell Proliferation Assay” sold by Promega (Technical Bulletin No. 169).
(§1) For MTS assay, cells were plated in 96-well plates at 2000 cells per well and incubated in the presence of compounds for 72 hr. MTS was added to each well as instructed by manufacture (Promega) and plates were incubated for 4 h at 37° C. The absorbance of each well was measured at 490 nm using a microplate reader.
A general note: Tetrazolium assays rely on reduction of a dye to a coloured formazan, in cell work by metabolically active cells.

The next data set concerns the target HDAC5 (Homo sapiens, UniProt Q9UQL6). In words: HDAC isoform assay, HDAC5.
For a further data set, the target named is T7, HDAC9 (Homo sapiens, UniProt Q9UKV0).
T7 construct: purchased BioMol
T7 sequence (Q9UKV0 whole entry): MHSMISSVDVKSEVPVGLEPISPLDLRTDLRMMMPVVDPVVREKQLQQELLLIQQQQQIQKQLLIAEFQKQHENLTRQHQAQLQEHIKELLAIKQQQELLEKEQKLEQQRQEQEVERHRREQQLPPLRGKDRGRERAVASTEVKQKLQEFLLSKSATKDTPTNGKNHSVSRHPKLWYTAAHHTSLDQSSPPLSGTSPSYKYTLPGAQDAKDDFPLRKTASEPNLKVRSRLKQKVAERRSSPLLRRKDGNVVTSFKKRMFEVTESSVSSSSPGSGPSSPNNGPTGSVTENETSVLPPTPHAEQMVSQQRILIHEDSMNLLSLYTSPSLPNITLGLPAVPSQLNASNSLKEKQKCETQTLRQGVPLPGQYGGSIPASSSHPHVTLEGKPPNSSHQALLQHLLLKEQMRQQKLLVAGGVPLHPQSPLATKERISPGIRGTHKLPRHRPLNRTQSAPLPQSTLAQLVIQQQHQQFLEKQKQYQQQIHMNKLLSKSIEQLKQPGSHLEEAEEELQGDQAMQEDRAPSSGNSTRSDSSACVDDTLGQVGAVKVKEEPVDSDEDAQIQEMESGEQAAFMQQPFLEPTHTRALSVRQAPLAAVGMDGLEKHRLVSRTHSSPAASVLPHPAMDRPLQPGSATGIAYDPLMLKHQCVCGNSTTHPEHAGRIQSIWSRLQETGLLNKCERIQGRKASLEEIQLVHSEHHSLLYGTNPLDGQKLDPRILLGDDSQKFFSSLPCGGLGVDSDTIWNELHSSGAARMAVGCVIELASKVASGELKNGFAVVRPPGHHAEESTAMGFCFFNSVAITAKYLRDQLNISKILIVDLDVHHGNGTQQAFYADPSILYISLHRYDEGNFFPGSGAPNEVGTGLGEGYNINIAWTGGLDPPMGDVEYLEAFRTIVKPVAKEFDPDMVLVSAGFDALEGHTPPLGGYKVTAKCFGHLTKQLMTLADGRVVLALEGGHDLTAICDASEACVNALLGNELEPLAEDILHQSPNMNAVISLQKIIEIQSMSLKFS
Briefly: HDAC isoform assay, HDAC9. The format is biochemical.

In the next data set the test system is Hut78 cells. Briefly: MTS cell viability assay, Hut78. The settings on record: Homo sapiens; Hut78, 72 hr; read-out: Hut78, IG50, MTS. The format is cell-based. The protocol: (§2) The MTS cell viability assay was used to determine the potency of proliferation inhibitor with. MTS measures mitochondrial dehydrogenase activity and serves as surrogate readout for the number of viable cells.
as §1

The test system of the next data set is HCT-116 cells. In words: MTS cell viability assay, HCT-116. Type of data set: cell-based. The settings on record: Homo sapiens; HCT-116, 72 hr; read-out: HCT-116, IG50, MTS. How it is done:
as §2, §1

In the next data set the test system is MJ cells. In words: MTS cell viability assay, MJ. The settings on record: 72 hr, read-out: MJ, IG50, MTS. The format is cell-based. How it is done: as §2, §1

SMILES strings stand for the structures.

T2 sequence (O15379 whole entry): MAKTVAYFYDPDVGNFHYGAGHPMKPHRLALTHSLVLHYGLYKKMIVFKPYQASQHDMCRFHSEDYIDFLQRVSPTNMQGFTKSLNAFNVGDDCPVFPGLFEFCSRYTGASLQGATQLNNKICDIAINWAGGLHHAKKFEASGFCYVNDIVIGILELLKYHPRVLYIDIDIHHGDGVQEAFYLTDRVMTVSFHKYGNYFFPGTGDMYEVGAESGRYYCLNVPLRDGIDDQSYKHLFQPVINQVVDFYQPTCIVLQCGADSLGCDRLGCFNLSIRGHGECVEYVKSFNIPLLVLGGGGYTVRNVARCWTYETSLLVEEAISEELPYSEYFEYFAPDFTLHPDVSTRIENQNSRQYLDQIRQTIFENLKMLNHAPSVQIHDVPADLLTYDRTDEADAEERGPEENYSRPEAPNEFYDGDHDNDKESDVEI
T2 sequence (O75376 395-489 partner limits assumed): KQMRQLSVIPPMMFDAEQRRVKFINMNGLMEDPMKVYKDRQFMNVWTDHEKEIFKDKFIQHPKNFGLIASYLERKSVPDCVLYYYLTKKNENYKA
Sequence of HDAC5 (Q9UQL6 whole entry, canonical isoform): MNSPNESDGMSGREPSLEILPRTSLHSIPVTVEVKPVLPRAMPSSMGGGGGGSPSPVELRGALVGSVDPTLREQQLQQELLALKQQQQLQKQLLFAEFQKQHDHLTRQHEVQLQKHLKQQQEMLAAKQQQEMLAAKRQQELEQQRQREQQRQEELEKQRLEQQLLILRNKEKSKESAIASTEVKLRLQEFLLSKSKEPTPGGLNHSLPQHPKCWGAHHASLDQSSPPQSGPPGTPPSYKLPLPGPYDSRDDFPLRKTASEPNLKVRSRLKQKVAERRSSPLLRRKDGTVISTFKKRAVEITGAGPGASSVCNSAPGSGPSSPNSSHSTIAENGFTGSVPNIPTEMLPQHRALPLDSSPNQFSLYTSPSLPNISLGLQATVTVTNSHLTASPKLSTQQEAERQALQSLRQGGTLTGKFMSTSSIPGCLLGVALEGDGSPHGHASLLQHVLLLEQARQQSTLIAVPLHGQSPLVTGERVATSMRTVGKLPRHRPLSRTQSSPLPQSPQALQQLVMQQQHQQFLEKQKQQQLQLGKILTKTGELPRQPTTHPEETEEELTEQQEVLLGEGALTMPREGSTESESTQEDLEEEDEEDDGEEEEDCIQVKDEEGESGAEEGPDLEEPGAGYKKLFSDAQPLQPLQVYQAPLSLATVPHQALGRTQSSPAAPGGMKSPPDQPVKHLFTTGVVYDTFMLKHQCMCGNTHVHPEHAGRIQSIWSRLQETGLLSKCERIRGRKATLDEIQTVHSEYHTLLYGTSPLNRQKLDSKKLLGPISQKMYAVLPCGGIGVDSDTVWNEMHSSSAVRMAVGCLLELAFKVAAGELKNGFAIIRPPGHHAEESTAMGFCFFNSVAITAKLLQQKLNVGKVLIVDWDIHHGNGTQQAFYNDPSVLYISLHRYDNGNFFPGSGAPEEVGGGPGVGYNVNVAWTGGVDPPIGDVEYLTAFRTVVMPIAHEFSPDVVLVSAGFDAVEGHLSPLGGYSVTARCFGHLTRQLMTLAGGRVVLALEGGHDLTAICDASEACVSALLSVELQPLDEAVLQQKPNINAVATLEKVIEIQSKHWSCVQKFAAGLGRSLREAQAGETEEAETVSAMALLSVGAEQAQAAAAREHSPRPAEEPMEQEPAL
Experimental for HDAC3: The assay measures the ability of a small molecule to inhibit deacetylation of the substrate. Activator reagent recognizes the substrate only if the lysine has been deacetylated.
This homogeneous assay in performed in the same well without washing steps. The HDAC source, nuclear HeLa extract, is incubated with substrate in the presence of an inhibitor compound. At the end of the reaction time, activator solution, containing Trypsin and TSA, is added to stop the deacetylation reaction, and cleave the amino-coumarin from the deacetylated substrate. The plate is then read on either a Perkin Elmer Victor or Envision system using Umbilliferone filter set. […] The signal is directly proportional to the activity of HDACs and compound inhibition of HDAC is monitored by a decrease in signal.

On to `CC(C)(C)OC(=O)N1CCn2cc(C(=O)NCc3ccc(C(=O)NO)cc3)c3cccc(c32)C1` [compound 15, tert-butyl 7-{[4-(hydroxycarbamoyl)benzyl]carbamoyl}-3,4-dihydro[1,4]diazepino[6,7,1-hi]indole-2(1H)-carboxylate], for which the IC50 at HDAC8 is 3450 nM; in [1], 505 nM; on HDAC3, 518 nM; against HDAC1 it was 492 nM; at HDAC6, 203 nM; at HDAC4, 791 nM. Also, the IC50 at HDAC2 worked out at 10000 nM.

Consider `O=C(CCC1CCN(C(=O)c2cn3c4c(cccc24)CCC3)CC1)NO` [compound 18, 3-[1-(5,6-dihydro-4H-pyrrolo[3,2,1-ij]quinolin-1-ylcarbonyl)piperidin-4-yl]-N-hydroxypropanamide], for which the melting point (usually the temperature of the solid-liquid transition) lay in the range of 110 to 113 °C. For the same compound, the IC50 in the data set on HH cells was 186 nM. This compound also displayed an IC50 against HDAC8 of 4970 nM. In addition, the IC50 on HDAC3 amounted to 29.8 nM. Moreover, on HDAC1, the IC50 is 35.7 nM. In addition, at HDAC6, the IC50 worked out at 144 nM. The IC50 on HDAC4 came to 69.1 nM. The same compound yielded an IC50 against HDAC5 of 91.5 nM. This compound registered an IC50 against HDAC9 of 535 nM. For the same compound, the IC50 on HDAC2 was 10000 nM. In the data set with Hut78 cells, the IC50 is 987 nM. Besides, the IC50 in the data set on HCT-116 cells was 1140 nM. Moreover, in the data set on MJ cells, the IC50 is 390 nM.

The values above are taken from patent US20100261710A1, “HDAC Inhibitors” (ARQULE, INC., priority 2007, published 2010).
